Test results from paper PMC9103705, “Effects of Drugs Formerly Proposed for COVID-19 Treatment on Connexin43 Hemichannels” (International Journal of Molecular Sciences, 2022).

Columns and labels:
[1] = system: Cx43 mRNA expression; test: RT-qPCR analysis of Cx43 mRNA expression; assay type: cell-based, human; details: DUBCA-hCx43 cells, 24 h; for Cx43 mRNA expression: CC10, CC10/2 and CC10/10 (all tested concentrations)
[2] = system: Cx43 protein expression; details: cited from earlier work
[3] = molecular target: T1, Cx43 hemichannels (Homo sapiens, UniProt P17302); test: Cx43 hemichannel activity assay (extracellular ATP release, bioluminescence); assay type: cell-based; details: HEK-hCx43 cells; for extracellular ATP levels at lower concentrations: CC10/2: 8.5 µM azithromycin, 7 µM chloroquine, 6.25 µM hydroxychloroquine; for extracellular ATP release (Cx43 hemichannel activity) compared to DF control: 30 min exposure in DF buffer; for extracellular ATP release at highest applied concentration: lopinavir 190 µM, remdesivir 500 µM (CC10 x10)
T1 construct: expressed in transfected cells; host or cells: HEK293 (HEK-hCx43, transduced)
T1 sequence (P17302 whole entry): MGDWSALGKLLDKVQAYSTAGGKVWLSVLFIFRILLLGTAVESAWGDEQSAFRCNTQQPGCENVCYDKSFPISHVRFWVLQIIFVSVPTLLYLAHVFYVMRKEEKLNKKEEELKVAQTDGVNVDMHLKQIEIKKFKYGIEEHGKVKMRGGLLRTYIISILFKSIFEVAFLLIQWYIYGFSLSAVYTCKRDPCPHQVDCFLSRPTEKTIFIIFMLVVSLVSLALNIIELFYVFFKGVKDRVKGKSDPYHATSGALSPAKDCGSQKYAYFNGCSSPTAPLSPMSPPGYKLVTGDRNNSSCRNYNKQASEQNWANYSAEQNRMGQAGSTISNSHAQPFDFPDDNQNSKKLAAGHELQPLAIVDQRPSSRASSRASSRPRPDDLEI

[4] = system: DUBCA-hCx43 cells; test: MTT cell viability assay for CC10 determination, 24 h drug exposure; details: 24 h exposure; for CC10 (concentration inducing 10% cell death): extrapolated from concentration-response curves
[5] = retrieved from the literature; cited from earlier work
[6] = system: gap junctional communication; details: cited from earlier work

| Structure (SMILES) | Cx43 mRNA expression [1] | Cx43 protein expression in cardiomyocytes [2] | extracellular ATP levels at lower concentrations ([3]; 30 min) | CC10 (concentration inducing 10% cell death) [4] [µM] | extracellular ATP release (Cx43 hemichannel activity) compared to DF control [3] | Cmax (total peak plasma concentration at therapeutic dose) [5] | concentration dependence of ATP release ([3]; 30 min, stepwise increase in ATP at lower concentrations) | cytotoxic effect on the cells [4] | gap junctional communication [6] | Cx43 mRNA expression at 5 µM ([1]; effect only seen at 5 µM) | extracellular ATP release at highest applied concentration ([3]; 30 min) |
| --- | --- | --- | --- | --- | --- | --- | --- | --- | --- | --- | --- |
| CCN(CCO)CCCC(C)Nc1ccnc2cc(Cl)ccc12 (stereo not drawn) [Hydroxychloroquine (sulphate), Hydroxychloroquine] | no effects | induced an elevation of Cx43 protein expression | increase extracellular ATP levels | 12.5 | – | – | – | – | – | – | – |
| NC(=O)c1ncn([C@@H]2O[C@H](CO)[C@@H](O)[C@H]2O)n1 [Ribavirin] | no effects | – | – | 10 | not significantly different from the DF control | – | – | – | – | – | – |
| CC[C@H]1OC(=O)[C@H](C)[C@@H](O[C@H]2C[C@@](C)(OC)[C@@H](O)[C@H](C)O2)[C@H](C)[C@@H](O[C@@H]2O[C@H](C)C[C@H](N(C)C)[C@H]2O)[C@](C)(O)C[C@@H](C)CN(C)[C@H](C)[C@@H](O)[C@]1(C)O [Azithromycin (dihydrate), Azithromycin] | no effects | – | increase extracellular ATP levels | 17 | – | 0.52 [23] µM | – | – | – | – | – |
| CC1(C)[C@@H](OC(=O)CCC(=O)O)CC[C@]2(C)[C@H]3C(=O)C=C4[C@@H]5C[C@@](C)(C(=O)O)CC[C@]5(C)CC[C@@]4(C)[C@]3(C)CC[C@@H]12 [Cbx, carbenoxolone] | – | – | – | – | lower ATP levels | – | – | – | – | – | – |
| C[C@@H]1C[C@H]2[C@@H]3CCC4=CC(=O)C=C[C@]4(C)[C@@]3(F)[C@@H](O)C[C@]2(C)[C@@]1(O)C(=O)CO [Dexamethasone] | no effects | – | – | >200 | not significantly different from the DF control | 0.63 [25] µM | might have a concentration-dependent effect on ATP release | did not show any cytotoxic effect | reduce gap junctional communication | – | – |
| CCC(CC)COC(=O)[C@H](C)N[P@](=O)(OC[C@H]1O[C@@](C#N)(c2ccc3c(N)ncnn23)[C@H](O)[C@@H]1O)Oc1ccccc1 [Remdesivir] | – | – | – | 50 | – | 9.03 [29] µM | – | – | – | decrease in Cx43 mRNA expression | released a significantly higher amount of ATP |
| NC(=O)c1nc(F)c[nH]c1=O [Favipiravir] | no effects | – | – | >400 | not significantly different from the DF control | 53.4 [26] µM | – | did not show any cytotoxic effect | – | – | – |
| CCN(CC)CCCC(C)Nc1ccnc2cc(Cl)ccc12 (stereo not drawn) [Chloroquine (diphosphate), Chloroquine] | no effects | – | increase extracellular ATP levels | – | – | 0.81 [24] µM | – | – | did not had any effects | – | – |
| Cc1cccc(C)c1OCC(=O)N[C@@H](Cc1ccccc1)[C@@H](O)C[C@H](Cc1ccccc1)NC(=O)[C@H](C(C)C)N1CCCNC1=O [Lopinavir] | no effects | – | – | 19 | – | – | – | – | – | – | released a significantly higher amount of ATP |
| CC(C)c1nc(CN(C)C(=O)N[C@H](C(=O)N[C@@H](Cc2ccccc2)C[C@H](O)[C@H](Cc2ccccc2)NC(=O)OCc2cncs2)C(C)C)cs1 [Ritonavir] | no effects | – | – | 16 | not significantly different from the DF control | 1.17 [31] µM | – | – | – | – | – |
